Test results: US8349883B2, “Hydroxamate-based inhibitors of deacetylases B” (Novartis AG, priority 2008, dated 2013)

Columns and labels:
[1] = molecular target: T1, HDAC-1 (Homo sapiens, UniProt Q13547); assay: HDAC inhibition assay (purified GST-HDAC protein); assay type: biochemical
T1 construct: made in house; host or cells: Sf9 or Sf21 insect cells (baculovirus, donor vector pFB-GSTX3)

[2] = test system: HCT116; assay: HCT116 IC50; assay type: cell-based; details: Homo sapiens, HCT-116

T1 sequence (Q13547 whole entry, species assumed): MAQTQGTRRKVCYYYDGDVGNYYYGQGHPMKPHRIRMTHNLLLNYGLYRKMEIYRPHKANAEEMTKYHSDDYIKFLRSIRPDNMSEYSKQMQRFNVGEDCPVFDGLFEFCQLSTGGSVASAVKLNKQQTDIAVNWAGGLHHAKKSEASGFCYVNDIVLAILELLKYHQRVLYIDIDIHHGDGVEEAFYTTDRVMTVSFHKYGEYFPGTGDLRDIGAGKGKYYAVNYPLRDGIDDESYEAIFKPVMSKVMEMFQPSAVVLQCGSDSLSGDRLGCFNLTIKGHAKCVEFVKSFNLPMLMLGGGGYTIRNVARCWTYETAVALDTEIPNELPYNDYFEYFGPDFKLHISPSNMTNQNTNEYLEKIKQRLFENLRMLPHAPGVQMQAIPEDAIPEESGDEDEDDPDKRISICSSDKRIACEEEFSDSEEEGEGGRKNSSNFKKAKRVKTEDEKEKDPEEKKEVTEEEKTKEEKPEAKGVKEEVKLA

IC50 [1] [nM] | IC50 [2] [nM] | Compound
9 | 42 | O=C(/C=C/c1ccc(C2CCCN2CC2CCCC2)cc1)NO (stereo not drawn) [Compound 40, (E)-3-[4-(1-Cyclopentylmethyl-pyrrolidin-2-yl)-phenyl]-N-hydroxy-acrylamide]
71 | 230 | O=C(/C=C/c1ccc([C@@H]2CCCN2CCn2ccc(C(F)(F)F)n2)cc1)NO [Compound 73, (E)-N-Hydroxy-3-(4-{(S)-1-[2-(3-trifluoromethyl-pyrazol-1-yl)-ethyl]-pyrrolidin-2-yl}-phenyl)-acrylamide]
8 | 43 | O=C(/C=C/c1ccc(C2CCCN2CCc2ccc([N+](=O)[O-])cc2)cc1)NO (stereo not drawn) [Compound 24, (E)-N-Hydroxy-3-(4-{1-[2-(4-nitro-phenyl)-ethyl]-pyrrolidin-2-yl}-phenyl)-acrylamide]
25 | 32 | CC(C)n1nnnc1CCN1CCC[C@H]1c1ccc(/C=C/C(=O)NO)cc1 [Compound 102, (E)-N-Hydroxy-3-(4-{(S)-1-[2-(1-isopropyl-1H-tetrazol-5-yl)-ethyl]-pyrrolidin-2-yl}-phenyl)-acrylamide]
40 | 160 | Cc1c(CC(C)(C)C)nn(CCN2CCC[C@H]2c2ccc(/C=C/C(=O)NO)cc2)c1O [Compound 68, (E)-3-[4-((S)-1-{2-[3-(2,2-Dimethyl-propyl)-5-hydroxy-4-methyl-pyrazol-1-yl]-ethyl}-pyrrolidin-2-yl)-phenyl]-N-hydroxy-acrylamide]
0.6 | 0.38 | Cc1nn2ccccc2c1CCN1CCC[C@H]1c1ccc(/C=C/C(=O)NO)cc1 [Compound 44, (E)-N-Hydroxy-3-(4-{(S)-1-[2-(2-methyl-pyrazolo[1,5-a]pyridin-3-yl)-ethyl]-pyrrolidin-2-yl}-phenyl)-acrylamide]
35 | 180 | O=C(/C=C/c1ccc([C@@H]2CCCN2CCn2cc(Br)cn2)cc1)NO [Compound 65, (E)-3-(4-{(S)-1-[2-(4-Bromo-pyrazol-1-yl)-ethyl]-pyrrolidin-2-yl}-phenyl)-N-hydroxy-acrylamide]
100 | 180 | Cc1nn(C)c(C)c1CCN1CCC[C@@H]1c1ccc(/C=C/C(=O)NO)cc1 [Compound 110, (E)-N-Hydroxy-3-(4-{(R)-1-[2-(1,3,5-trimethyl-1H-pyrazol-4-yl)-ethyl]-pyrrolidin-2-yl}-phenyl)-acrylamide]
1 | 1.1 | O=C(/C=C/c1ccc([C@@H]2CCCN2CCc2cnn3ccccc23)cc1)NO [Compound 43, (E)-N-Hydroxy-3-{4-[(S)-1-(2-pyrazolo[1,5-a]pyridin-3-yl-ethyl)-pyrrolidin-2-yl]-phenyl}-acrylamide]
1.8 | 4 | Cc1nn(C)c(C)c1CCN1CCC[C@H]1c1ccc(/C=C/C(=O)NO)cc1 [Compound 60, (E)-N-Hydroxy-3-(4-{(S)-1-[2-(1,3,5-trimethyl-1H-pyrazol-4-yl)-ethyl]-pyrrolidin-2-yl}-phenyl)-acrylamide]
8 | 21 | O=C(/C=C/c1ccc([C@@H]2CCCN2CCc2ccc(F)cc2)cc1)NO [Compound 21, (E)-3-(4-{(S)-1-[2-(4-Fluoro-phenyl)-ethyl]-pyrrolidin-2-yl}-phenyl)-N-hydroxy-acrylamide]
7 | 0.5 | CC(C)(C)c1[nH]c2cc([N+](=O)[O-])ccc2c1CCN1CCCC1c1ccc(/C=C/C(=O)NO)cc1 (stereo not drawn) [Compound 9, (E)-3-(4-{1-[2-(2-tert-Butyl-6-nitro-1H-indol-3-yl)-ethyl]-pyrrolidin-2-yl}-phenyl)-N-hydroxy-acrylamide]
4 | 96 | Cc1[nH]c2ccccc2c1CC(=O)N1CCCC1c1ccc(/C=C/C(=O)NO)cc1 (stereo not drawn) [Compound 12, (E)-N-Hydroxy-3-(4-{1-[2-(2-methyl-1H-indol-3-yl)-acetyl]-pyrrolidin-2-yl}-phenyl)-acrylamide]
5 | 67 | O=C(/C=C/c1ccc(C2CCCN2CC(O)c2ccc(Cl)cc2)cc1)NO (stereo not drawn) [Compound 31, (E)-3-(4-{1-[2-(4-Chloro-phenyl)-2-hydroxy-ethyl]-pyrrolidin-2-yl}-phenyl)-N-hydroxy-acrylamide]
3 | 2 | CC(C)(C)c1[nH]c2cc(NS(C)(=O)=O)ccc2c1CCN1CCCC1c1ccc(/C=C/C(=O)NO)cc1 (stereo not drawn) [Compound 10, (E)-3-(4-{1-[2-(2-tert-Butyl-6-methanesulfonylamino-1H-indol-3-yl)-ethyl]-pyrrolidin-2-yl}-phenyl)-N-hydroxy-acrylamide]
58 | 160 | CC(C)n1nnc(CCN2CCC[C@H]2c2ccc(/C=C/C(=O)NO)cc2)n1 [Compound 101, (E)-N-Hydroxy-3-(4-{(S)-1-[2-(2-isopropyl-2H-tetrazol-5-yl)-ethyl]-pyrrolidin-2-yl}-phenyl)-acrylamide]
1 | 0.4 | O=C(/C=C/c1ccc([C@@H]2CCCN2CCc2c(-c3cccnc3)nn3ccccc23)cc1)NO [Compound 50, (E)-N-Hydroxy-3-(4-{(S)-1-[2-(2-pyridin-3-yl-pyrazolo[1,5-a]pyridin-3-yl)-ethyl]-pyrrolidin-2-yl}-phenyl)-acrylamide]
6 | 10 | O=C(/C=C/c1ccc(C2CCCN2CCn2ccc3ccccc32)cc1)NO (stereo not drawn) [Compound 5, (E)-N-Hydroxy-3-{4-[1-(2-indol-1-yl-ethyl)-pyrrolidin-2-yl]-phenyl}-acrylamide]
1.7 | 2 | CCn1nc(C)c(CCN2CCC[C@H]2c2ccc(/C=C/C(=O)NO)cc2)c1C [Compound 96, (E)-3-(4-{(S)-1-[2-(1-Ethyl-3,5-dimethyl-1H-pyrazol-4-yl)-ethyl]-pyrrolidin-2-yl}-phenyl)-N-hydroxy-acrylamide]
10 | 10 | Cc1cc2ccccc2n1CCN1CCCC1c1ccc(/C=C/C(=O)NO)cc1 (stereo not drawn) [Compound 4, (E)-N-Hydroxy-3-(4-{1-[2-(2-methyl-indol-1-yl)-ethyl]-pyrrolidin-2-yl}-phenyl)-acrylamide]
8 | 35 | Cn1cc(CCN2CCC[C@H]2c2ccc(/C=C/C(=O)NO)cc2)cn1 [Compound 59, (E)-N-Hydroxy-3-(4-{(S)-1-[2-(1-methyl-1H-pyrazol-4-yl)-ethyl]-pyrrolidin-2-yl}-phenyl)-acrylamide]
6 | 43 | Nc1ccc(-n2cc(CCN3CCC[C@H]3c3ccc(/C=C/C(=O)NO)cc3)nn2)cc1 [Compound 79, (E)-3-[4-((S)-1-{2-[1-(4-Amino-phenyl)-1H-[1,2,3]triazol-4-yl]-ethyl}-pyrrolidin-2-yl)-phenyl]-N-hydroxy-acrylamide]
3 | 7 | O=C(/C=C/c1ccc(C2CCCN2CCc2ccccc2)cc1)NO (stereo not drawn) [Compound 19, (E)-N-Hydroxy-3-[4-(1-phenethyl-pyrrolidin-2-yl)-phenyl]-acrylamide]
7 | 48 | O=C(/C=C/c1ccc([C@@H]2CCCN2CCC2CCCCC2)cc1)NO [Compound 41, (E)-3-{4-[(S)-1-(2-Cyclohexyl-ethyl)-pyrrolidin-2-yl]-phenyl}-N-hydroxy-acrylamide]
